Results as given in patent publication US20260241036A1, “CHEMOGENETICS-BASED THERAPY FOR NEUROLOGICAL DISORDERS” (GATEWAY BIOTECHNOLOGY, INC., priority 2023, published 2026).

Experiments:
[1] = test system: excitatory neurons of the IC; test: Sound-based avoidance detection (SBAD) testing in the chemogenetic model of tinnitus (excitatory DREADD injected into the IC, activated by CNO); assay type: in vivo, C57BL/6J mice
Description: (§1) Using a shuttle box divided into two compartments, mice were trained to cross from side to side with sound cues in the “Go” trials and remain still in the absence of sound in the “No-Go” trials for 15 days. […] The sound cues were randomly played as white noise or narrow-band noise at 5, 10, 16, 20, and 32 kHz with sound intensities randomly at 75, 80, or 85 dB. […] Additionally, a hurdle was added on training 11 to reinforce the training. After the 15th training day, mice were tested for 3 days to obtain a baseline score to be compared after noise exposure, as well as retraining for 3 days.
Following the successful completion of training so that mice reached a high percentage of success in the trials, the mice were exposed to a noise-induced trauma for tinnitus. To ensure that the mice still have their hearing, one ear was protected with an ear plug, while the other ear was exposed to the noise. The mice were placed in a sound booth where they were exposed to 120 dB broadband noise at 4-25 kHz for 2-4 hours. Following the noise exposure, the mice were housed for one month, and then tested to see if they have developed tinnitus. In these testing periods, the mice were tested for three days in the shuttle boxes, where they underwent the Go and No-Go trials, however in the No-Go trials the mice were not shocked, as it is expected that mice with tinnitus would cross compartments in the absence of a sound cue. The mice were continued to be shocked in the Go trials in order to ensure that they have retained their hearing and can hear the sound cues. […] To insure there is a significant difference in the No-Go trial scores, chi-square tests were completed comparing the post-noise exposure tests to the baseline tests. However, if tinnitus is not present in the mice, tests were done after waiting one more month, and another if needed.
A chemogenetic-based model was established by using DREADDs to target excitatory neurons of the IC to establish a more reliable and efficient tinnitus model in mice. […]

[2] = SBAD testing of a control group of SBAD trained animals given CNO, to rule out off-target effects of CNO; assay type: in vivo, mice; settings: control group of three SBAD trained animals; CNO IP 5 mg/kg one hour before SBAD testing
Description: as §1
A chemogenetic-based model was established by using DREADDs to target excitatory neurons of the IC to establish a more reliable and efficient tinnitus model in mice. Stereotaxic microinjections of excitatory DREADDs [AAV8-CaMKIIa-HM3D-mCherry] were performed in these C57BL/6J mice, similar to previous studies (Saloman et al., 2016; Smith et al. 2016; Horii-Hayashi & Nishi 2021). Coordinates for microinjections were based on the atlas of Paxinos and Watson (2006) (AP: −5.00 mm, ML: +/−1.00 mm, DV: −1.50 mm). Mice were anesthetized with 5% isoflurane and placed in a stereotaxic head frame. During surgery mice were maintained at a 1.5-2% isoflurane level. Hair was removed and a vertical incision was made to expose the skull. The skull was leveled between bregma and lambda. […]

**Q.** For `C[N+]1([O-])CCN(C2=Nc3cc(Cl)ccc3Nc3ccccc32)CC1` [CNO, Clozapine-N-oxide], which “number of animals tested positive for tinnitus” value ([1]; of eight animals, one hour after IP injection of CNO, chi-squared, p<0.03) is on record?
**A.** seven

**Q.** What about the “animals tested positive for tinnitus (share of animals)” value ([1]; one hour after IP injection of CNO, eight mice with 50 or 150 nL AAV8-CaMKIIa-HM3D-mCherry bilaterally in the IC, chi-squared, p<0.03) of the same compound?
**A.** 87%

**Q.** And the “SBAD No-Go scores post-CNO injections compared to baseline and saline injections” value ([1]; post-hoc t-tests (Bonferoni adjusted), p<.001, mice with AAV8-CaMKIIa-HM3D-mCherry in the IC)?
**A.** significantly reduced

**Q.** What about the “Go and No-Go scores post-CNO injections (behavioral side effects of CNO)” value [2] of the same compound?
**A.** remained stable
